In US20020111305A1, “Antiviral peptides” (priority 1998, published 2002):
Where no end group is shown, it is not given here.

How the values were obtained:
HIV-1 III-b = test: HIV-1 neutralization assay (syncytia-forming on MT-2 cells); type: cell-based, Human Immuno-deficiency Virus Type 1; settings: day 21; 457 TCID50 HIV per ml; 2 hours at 37° C.; maximum 800 μg/ml
Procedure: (§1) A neutralization assay was performed on HIV-1 III-b as substantially described by Groenink M. et al., J. Virol 69, 523-527 (1995). In short, this assay comes down to the virus-neutralizing capacity of the different peptides being tested with an inoculum of 457 TCID50HIV per ml per neutralization, which is incubated at 37° C. for two hours with a twofold dilution series of the peptide for testing (maximum 800 μg/ml final concentration). The incubations are performed in a 5 mM phosphate buffer. On day 7, 14 and 21 the neutralization is assessed on the basis of the detected cytopathic effect (syncytia-forming) on MT-2 cells.

[1] = test system: Herpes Simplex Virus (HSV); test: Antiviral activity against Herpes Simplex Virus (TCID50 on Vero-cells after pre-incubation with peptide); type: cell-based
Procedure: In test phials 10 μl HSV (Department of Virology Academisch Ziekenhuis Leiden (Leiden University Hospital), lab strain 96-6700 P (TCID50 10^5-10^6), was supplemented with peptide and NaPB to 200 μl. For the positive control the peptide was replaced by a human neutrophil defensin pool (HNP1-3). The test phials were subsequently incubated at 37° C. for 3 hours. Tenfold dilutions were then made in Dulbecco's Modified Eagles Medium (DMEM) with 2% foetal calf serum (FSCi). Diverse peptides, synthesized in identical manner, were used as negative control in the experiments.
Vero-cells were isolated using detachment buffer (0.25% trypsin and 0.03% EDTA in PBS), washed and brought to a concentration of 2×10^5 cells per ml DMEM +2% FCSi. In 96 wells-plates (Nunclon) 100 μl cell suspension (2×10^4 cells) was added per well. Acyclovir (ACV) was added as control to several wells about two hours (t=−2 hours) before infection. 50 μl of a dilution was added to each well at the point in time t=0.
After 3 days incubation in a CO2-stove of 37° C. the cytopathological effect (cpe) was scored by counting under the microscope and the TCID50 (tissue culture […] dose) was determined using the Reed & Muench method (Dulbecco & Ginsberg, “Virology”, JB Lippincott Co., Philadelphia, 2nd edition, 1988).
The effectiveness of peptide 10 in time was then determined. […]

MT-2 cells = test: Cytotoxicity seen in the HIV-1 neutralization assay; type: cell-based; settings: 800 μg/ml
Procedure: as §1

## DSHAKRHHGYKRKFHEKHHSHRGY [his 5, reference compound]
HIV-1 III-b
  neutralizing capacity: μg/ml necessary for neutralization: no neutralization

## KRKFHEKHHSHRGY [dh-5, the C-terminal part of histatin 5, reference compound]
HIV-1 III-b
  neutralizing capacity: μg/ml necessary for neutralization: no neutralisation

## KRLFKELLFSLRKY [peptide 4]
HIV-1 III-b
  neutralizing capacity: μg/ml necessary for neutralization: 200 µg/mL

## KRLFKKLLFSLRKY [peptide 10]
HIV-1 III-b
  neutralizing capacity: μg/ml necessary for neutralization: 200 µg/mL
[1]; in high concentrations
  activity against HSV compared with HNP, dilution series (FIG. 3): more effective than HNP
[1]; peptide at sufficiently high concentrations (50 μg/ml), 3 hours at 37° C.
  effectiveness against HSV compared with acyclovir and HNP (FIG. 1): at least as effective as acyclovir and HNP

## LLLFLLKKRKKRKY [peptide 11, LLLFLLKKRKKRKY]
MT-2 cells
  cytotoxicity at the highest concentration: # peptide 11 was cytoxic at the highest concentration (800 μg/ml).
